Test results: patent US10633338B2, “Binding Function 3 (BF3) site compounds as therapeutics and methods for their use” (THE UNIVERSITY OF BRITISH COLUMBIA, priority 2014, dated 2020)
pIC50: −log10 of the molar value. Where two headings read alike, the source gives them in different places.

Legend:
[1] = system: PSA; test: Prostate Surface Antigen (PSA) assay, PSA excreted into the media; type: cell-based, human; conditions: same plates as eGFP assay
Experimental: The evaluation of PSA excreted into the media was performed in parallel to the eGFP assay using the same plates (see above description). After the cells were incubated for 3 days 150 μl of the media was taken from each well, and added to 150 μl of PBS.

[2] = target: T1, androgen receptor (AR) (Homo sapiens, UniProt P10275, T878A); test: eGFP cellular AR transcription assay; type: cell-based
T1 construct: stably transfected eGFP-expressing LNCaP human prostate cancer cells (LN-ARR2PB-eGFP) containing an androgen responsive probasin-derived promoter; endogenous in cells; host or cells: LNCaP (LN-ARR2PB-eGFP)
T1 sequence (P10275 1-920 T878A): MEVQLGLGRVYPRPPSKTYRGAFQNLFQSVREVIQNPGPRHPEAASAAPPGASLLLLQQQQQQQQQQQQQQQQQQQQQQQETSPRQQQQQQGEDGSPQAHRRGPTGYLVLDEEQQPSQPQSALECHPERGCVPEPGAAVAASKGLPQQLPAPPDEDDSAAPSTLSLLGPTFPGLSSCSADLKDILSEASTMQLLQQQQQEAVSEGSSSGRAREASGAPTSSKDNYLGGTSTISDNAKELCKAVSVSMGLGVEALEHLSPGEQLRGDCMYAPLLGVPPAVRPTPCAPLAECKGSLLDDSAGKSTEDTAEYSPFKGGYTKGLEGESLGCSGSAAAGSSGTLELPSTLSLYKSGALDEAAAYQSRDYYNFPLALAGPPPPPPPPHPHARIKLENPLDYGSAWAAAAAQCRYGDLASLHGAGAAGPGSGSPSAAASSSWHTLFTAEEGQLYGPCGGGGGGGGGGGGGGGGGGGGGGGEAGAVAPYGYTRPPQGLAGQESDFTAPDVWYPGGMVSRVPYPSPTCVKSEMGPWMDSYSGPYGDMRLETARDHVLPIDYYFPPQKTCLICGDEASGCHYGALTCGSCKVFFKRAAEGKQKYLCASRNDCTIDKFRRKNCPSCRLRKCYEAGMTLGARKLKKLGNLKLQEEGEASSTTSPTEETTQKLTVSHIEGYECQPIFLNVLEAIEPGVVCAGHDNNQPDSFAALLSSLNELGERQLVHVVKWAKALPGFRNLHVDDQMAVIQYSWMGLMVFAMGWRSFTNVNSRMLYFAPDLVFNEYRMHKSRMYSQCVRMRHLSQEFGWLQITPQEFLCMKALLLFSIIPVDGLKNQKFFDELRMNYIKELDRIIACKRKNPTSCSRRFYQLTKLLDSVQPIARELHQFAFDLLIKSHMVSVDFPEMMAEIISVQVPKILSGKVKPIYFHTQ
In short: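 AR transcriptional activity is read as eGFP expression from a probasin-derived androgen-responsive promoter. Compound titrated 0-100 μM in the presence of 0.1 nM R1881; 35,000 cells/well.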

[3] = Homo sapiens, 72 h, PSA excreted into media, 3 days incubation, read-out: PSA IC50
[4] = LN-ARR2PBeGFP LNCaP cells, 0.1 nM R1881, 3 days incubation, read-out: eGFP IC50
[5] = Homo sapiens, 72 h, media after 3 days, read-out: IC50 (PSA)
[6] = LN-ARR2PB-eGFP LNCaP cells, 0.1 nM R1881, 3 days, 0-100 μM compound, read-out: IC50 (eGFP)
[7] = PSA excreted into media, 3 days incubation
[8] = LN-ARR2PBeGFP LNCaP cells, 0.1 nM R1881, 3 days incubation

Compound | pIC50 [1, 3] | pIC50 [2, 4] | PSA IC50 [1, 7] | eGFP IC50 [2, 8] | further results
CC1(C)c2cc(Br)ccc2NC1c1c[nH]c2ccc([N+](=O)[O-])cc12 (stereo not drawn) [Compound 13530] | 5.80 | 5.33 | – | – | –
FC(F)(F)c1ccc(-c2c[nH]c3ccccc23)nc1 [13 741] | – | – | – | – | pIC50 [1, 5]: 6.54; pIC50 [2, 6]: 6.54
COc1cccc2c(-c3cc(C)c4ccccc4n3)c[nH]c12 [Compound 13554] | 6.17 | 6.23 | – | – | –
c1ccc2nc(-c3n[nH]c4ccccc34)ccc2c1 [Compound 13663] | – | – | Inactive | Inactive | –
Fc1cccc2nc(-c3c[nH]c4ccccc34)ccc12 [Compound 13690] | – | – | Inactive | Inactive | –
Cc1cccc2c(-c3ccc4cccnc4c3)c[nH]c12 [Compound 13744] | 6.12 | 6.12 | – | – | –
Fc1cc2[nH]cc(-c3ccc4cccc(C(F)(F)F)c4n3)c2cc1F [Compound 13682] | 6.00 | 6.05 | – | – | –
Cc1cccc2c(-c3ccc4c(Br)cccc4n3)c[nH]c12 [Compound 13678] | – | – | Inactive | Inactive | –
NC(=O)c1ccccc1/N=C/c1c[nH]c2ccccc12 [Compound 13427] | 6.51 | 6.40 | – | – | –
C[C@@H]1Cc2ccccc2N1c1nc2ccccc2o1 [Compound 13245] | 5.77 | 5.77 | – | – | –
Cc1cccc2c(-c3ccc4c([N+](=O)[O-])cccc4n3)c[nH]c12 [Compound 13632] | – | – | Inactive | Inactive | –
Fc1ccc2c(-c3ccc4cccnc4c3)c[nH]c2c1 [Compound 13764] | 7.09 | 7.00 | – | – | pIC50 [1, 5]: 7.09
Fc1cc2c(-c3ccc4cccnc4c3)c[nH]c2c(F)c1F [Compound 13770] | 7.77 | 7.00 | – | – | –
Clc1cccc2nc(-c3c[nH]c4c(Cl)cccc34)ccc12 [Compound 13748] | – | – | Inactive | Inactive | –
Cc1c(F)ccc2c(-c3nc4ccccc4cc3O)c[nH]c12 [Compound 13652] | 5.75 | 5.45 | – | – | –
Fc1ccc2nc(-c3c[nH]c4c(F)c(F)c(F)cc34)ccc2c1 [Compound 13776] | – | 6.68 | – | – | pIC50 ([1]; PSA excreted into media, 3 days incubation, read-out: PSA IC50): 6.72
Cc1cc(F)c2[nH]cc(-c3ccc4ccccc4n3)c2c1 [Compound 13612] | 6.09 | 5.84 | – | – | –
Fc1ccc2ccc(Cl)nc2c1 [Compound 13728] | – | – | Inactive | Inactive | –
Fc1cc(F)c2[nH]ccc2c1 [Compound 13723] | – | – | Inactive | Inactive | –
Cc1c(F)ccc2c(-c3ccc4c(C#N)cccc4n3)c[nH]c12 [Compound 13609] | – | – | Inactive | Inactive | –
O=C(O)c1cccc2nc(-c3c[nH]c4c(Cl)cc(F)cc34)ccc12 [Compound 13673] | – | – | Inactive | Inactive | –
CNC(=O)c1cccc2nc(-c3c[nH]c4ccccc34)ccc12 [Compound 13691] | 6.32 | 6.40 | – | – | –
CC1(C)c2ccccc2NC1c1c[nH]c2ncccc12 (stereo not drawn) [13 556] | – | – | – | – | pIC50 [1, 5]: 5.66; pIC50 [2, 6]: 5.68
Brc1ccc2[nH]cc(-c3ccc4ccccc4n3)c2c1 [Compound 13683] | 5.72 | 5.59 | – | – | –
Cc1cccc2c(-c3cnc4ccccc4c3)c[nH]c12 [13 654] | – | – | – | – | pIC50 [1, 5]: 6.80; pIC50 [2, 6]: 6.04
NC(=O)c1cccc2nc(-c3c[nH]c4c(F)cc(F)cc34)ccc12 [Compound 13747] | – | – | Inactive | Inactive | –
c1ccc2cc(-c3c[nH]c4ccncc34)ccc2c1 [Compound 13685] | – | – | Inactive | Inactive | –
Fc1ccc2[nH]cc(-c3cc4ccccc4[nH]3)c2c1 [Compound 13500] | 6.39 | 5.91 | – | – | –
